Experimental data as given in the CheMixHub viscosity set.

Experiment: xn = mol fraction of the nth substance listed

CC(=O)O + CC(C)O
viscosity [mPa·s], 101 kPa
Details | x1 = 0.00598 | x1 = 0.02919 | x1 = 0.04037 | x1 = 0.0567 | x1 = 0.1073 | x1 = 0.1528 | x1 = 0.1938 | x1 = 0.2308
298.15 K | 2.633 | 2.564 | 2.503 | 2.435 | 2.286 | 2.221 | 2.133 | 2.058
308.15 K | 1.962 | 1.906 | 1.877 | 1.843 | 1.75 | 1.696 | 1.651 | 1.621
318.15 K | 1.521 | 1.491 | 1.474 | 1.454 | 1.4 | 1.363 | 1.33 | 1.306

CCOC=O + CC(C)O
viscosity [mPa·s], 100 kPa
Details | x1 = 0.0814 | x1 = 0.1589 | x1 = 0.2351 | x1 = 0.3413 | x1 = 0.4351 | x1 = 0.5587 | x1 = 0.6507 | x1 = 0.7349 | x1 = 0.8498 | x1 = 0.9394
293.15 K | 1.77 | 1.33 | 1.06 | 0.82 | 0.68 | 0.57 | 0.52 | 0.48 | 0.44 | 0.42
298.15 K | 1.53 | 1.18 | 0.95 | 0.76 | 0.64 | 0.54 | 0.49 | 0.46 | 0.42 | 0.4
303.15 K | 1.35 | 1.06 | 0.87 | 0.7 | 0.59 | 0.51 | 0.46 | 0.43 | 0.4 | 0.38
308.15 K | 1.19 | 0.95 | 0.79 | 0.65 | 0.56 | 0.48 | 0.44 | 0.41 | 0.38 | 0.36
313.15 K | 1.05 | 0.85 | 0.71 | 0.59 | 0.52 | 0.45 | 0.41 | 0.39 | 0.36 | 0.34
318.15 K | 0.92 | 0.75 | 0.64 | 0.54 | 0.48 | 0.42 | 0.39 | 0.36 | 0.34 | 0.32
323.15 K | 0.81 | 0.67 | 0.57 | 0.49 | 0.44 | 0.38 | 0.36 | 0.33 | 0.31 | 0.3

ClCCl + CC(C)O
298.15 K, 101 kPa
Details | viscosity [mPa·s]
x2 = 0.05 | 0.425
x2 = 0.0992 | 0.435
x2 = 0.1 | 0.433
x2 = 0.15 | 0.444
x2 = 0.2 | 0.458
x2 = 0.2021 | 0.457
x2 = 0.25 | 0.474
x2 = 0.299 | 0.491
x2 = 0.3 | 0.494
x2 = 0.35 | 0.518
x2 = 0.3974 | 0.548
x2 = 0.4 | 0.547
x2 = 0.45 | 0.583
x2 = 0.5 | 0.626
x2 = 0.55 | 0.679
x2 = 0.552 | 0.68
x2 = 0.5957 | 0.74
x2 = 0.6 | 0.744
x2 = 0.65 | 0.823
x2 = 0.6514 | 0.825
x2 = 0.7 | 0.917
x2 = 0.75 | 1.031
x2 = 0.8 | 1.167
x2 = 0.8003 | 1.16
x2 = 0.85 | 1.327
x2 = 0.8515 | 1.321
x2 = 0.897 | 1.515
x2 = 0.9 | 1.516
x2 = 0.924 | 1.619
x2 = 0.9482 | 1.742
x2 = 0.95 | 1.738
x2 = 0.975 | 1.912

CCCCCCCCCCCCCCCC(=O)O + CC(C)[C@@H]1CC[C@@H](C)C[C@H]1O
100 kPa, x1 = 0.15
Details | viscosity [mPa·s]
313.15 K | 15.25
318.15 K | 11.78
323.15 K | 9.29

CCNc1ccccc1 + CCC(=O)O
308.15 K, 101.33 kPa
Details | viscosity [mPa·s]
x2 = 0.1567 | 1.706
x2 = 0.2906 | 1.897
x2 = 0.4142 | 2.167
x2 = 0.5224 | 2.302
x2 = 0.6217 | 2.533
x2 = 0.7121 | 2.575
x2 = 0.7933 | 2.379
x2 = 0.8787 | 1.916
x2 = 0.9032 | 1.691
x2 = 0.9363 | 1.412
x2 = 0.9694 | 1.113

CCNc1ccccc1 + CCC(=O)c1ccccc1
303.15 K, 100 kPa
Details | viscosity [mPa·s]
x1 = 0.0789 | 1.524
x1 = 0.1541 | 1.537
x1 = 0.2249 | 1.55
x1 = 0.3002 | 1.565
x1 = 0.3862 | 1.581
x1 = 0.4651 | 1.598
x1 = 0.5244 | 1.612
x1 = 0.6049 | 1.631
x1 = 0.6891 | 1.653
x1 = 0.7354 | 1.666
x1 = 0.8005 | 1.683
x1 = 0.8523 | 1.699
x1 = 0.9099 | 1.716

CC(=O)O + CCC(C)=O
viscosity [mPa·s], 101 kPa
Details | x1 = 0.1006 | x1 = 0.2003 | x1 = 0.3011 | x1 = 0.4019 | x1 = 0.5031 | x1 = 0.6006 | x1 = 0.7023 | x1 = 0.7985 | x1 = 0.8986
298.15 K | 0.4312 | 0.4737 | 0.5266 | 0.5832 | 0.6507 | 0.7259 | 0.8152 | 0.9085 | 1.013
308.15 K | 0.3905 | 0.4255 | 0.4697 | 0.5173 | 0.573 | 0.6346 | 0.7132 | 0.7902 | 0.879
318.15 K | 0.3521 | 0.3832 | 0.4196 | 0.4601 | 0.5058 | 0.559 | 0.6203 | 0.6845 | 0.7622

CCC(C)Br (stereo unspecified) + CCC(C)O
viscosity [mPa·s], 101.3 kPa
Details | x1 = 0.0514 | x1 = 0.1041 | x1 = 0.2027 | x1 = 0.2985 | x1 = 0.4321 | x1 = 0.5027 | x1 = 0.5839 | x1 = 0.702 | x1 = 0.8019 | x1 = 0.9029
298.15 K | 2.434 | 1.986 | 1.435 | 1.135 | 0.8991 | 0.8084 | 0.7285 | 0.6459 | 0.5996 | 0.5667
313.15 K | 1.495 | 1.276 | 1.006 | 0.8366 | 0.6849 | 0.6292 | 0.5794 | 0.5282 | 0.4961 | 0.4774

CCNc1ccccc1 + CCC(C)O
viscosity [mPa·s], 101 kPa
Details | 303.15 K | 308.15 K
x1 = 0.0785 | 2.682 | 2.105
x1 = 0.1325 | 2.642 | 2.089
x1 = 0.1965 | 2.596 | 2.071
x1 = 0.2564 | 2.55 | 2.052
x1 = 0.3214 | 2.498 | 2.028
x1 = 0.3965 | 2.433 | 1.995
x1 = 0.4562 | 2.378 | 1.964
x1 = 0.5124 | 2.322 | 1.932
x1 = 0.5895 | 2.24 | 1.882
x1 = 0.6547 | 2.164 | 1.835
x1 = 0.7325 | 2.07 | 1.773
x1 = 0.8025 | 1.983 | 1.714
x1 = 0.8745 | 1.894 | 1.653

CCOC=O + CCC(C)O
viscosity [mPa·s], 100 kPa
Details | x1 = 0.0818 | x1 = 0.1617 | x1 = 0.2415 | x1 = 0.3497 | x1 = 0.4398 | x1 = 0.5611 | x1 = 0.65 | x1 = 0.7399 | x1 = 0.85 | x1 = 0.9396
293.15 K | 2.41 | 1.74 | 1.35 | 1.04 | 0.86 | 0.69 | 0.59 | 0.53 | 0.48 | 0.44
298.15 K | 2.03 | 1.51 | 1.2 | 0.94 | 0.78 | 0.62 | 0.55 | 0.5 | 0.45 | 0.42
303.15 K | 1.74 | 1.32 | 1.07 | 0.84 | 0.71 | 0.58 | 0.51 | 0.47 | 0.43 | 0.4
308.15 K | 1.5 | 1.17 | 0.96 | 0.77 | 0.66 | 0.55 | 0.49 | 0.45 | 0.41 | 0.38
313.15 K | 1.3 | 1.02 | 0.85 | 0.71 | 0.61 | 0.51 | 0.46 | 0.42 | 0.39 | 0.36
318.15 K | 1.13 | 0.9 | 0.77 | 0.65 | 0.57 | 0.48 | 0.43 | 0.39 | 0.36 | 0.34
323.15 K | 1 | 0.82 | 0.72 | 0.61 | 0.55 | 0.47 | 0.42 | 0.38 | 0.35 | 0.32
